Source: ChEMBL document CHEMBL5260848, “Recent advancements in the development of bioactive pyrazoline derivatives” (Eur J Med Chem, 2020)
In brackets after ≈: the same amount, converted by molar mass.

Legend:
Mus musculus [1] = organism: Mus musculus; assay: Antidepressant activity in Swiss albino mouse assessed as decrease in duration of immobility by tail suspension test relative to control; type: functional; parameters: scale not given: the % may be the effect or the level left
Mus musculus [2] = assay: Antidepressant activity in Swiss albino mouse assessed as decrease in duration of immobility at 100 mg/kg, po by forced swimming test relative to control; type: functional; parameters: scale not given: the % may be the effect or the level left
Mus musculus [3] = organism: Mus musculus; assay: Antidepressant activity in mouse assessed as […] by tail suspension test; type: functional
Mus musculus [4] = organism: Mus musculus; assay: Antidepressant activity in mouse assessed as […] by forced swimming test; type: functional
Mus musculus [5] = organism: Mus musculus; assay: Antianxiety activity in mouse assessed as increase in number of entries in different arms; type: functional
A549 = assay: Cytotoxicity against human A549 cells by SRB assay; type: functional
HeLa = assay: Cytotoxicity against human HeLa cells by SRB assay; type: functional
DU-145 = assay: Cytotoxicity against human DU-145 cells by SRB assay; type: functional
HepG2 = assay: Cytotoxicity against human HepG2 cells by SRB assay; type: functional
Carbonic anhydrase 1 = Carbonic anhydrase 1 (Homo sapiens, UniProt P00915); assay: Inhibition of human CA1 by UV spectrophotometric analysis
Carbonic anhydrase 2 = Carbonic anhydrase 2 (Homo sapiens, UniProt P00918); assay: Inhibition of human CA2 by UV spectrophotometric analysis
Acetylcholinesterase = Acetylcholinesterase (Homo sapiens, UniProt P22303)
Plasmodium falciparum [6] = assay: Antimalarial activity against chloroquine-sensitive Plasmodium falciparum NF54 measured after 72 hrs by giemsa staining based analysis; type: functional, organism-based; conditions: NF54, 72 h
Hemozoin = assay: Inhibition of Beta-hematin in Plasmodium berghei
Plasmodium falciparum [7] = assay: In vivo antimalarial activity against Plasmodium berghei K173 infected in mouse assessed as reduction in parasitemia at 50 mg/kg, ip measured after 6 days by giemsa staining based microscopic analysis relative to control; type: functional; parameters: scale not given: the % may be the effect or the level left; conditions: time 6 day
Plasmodium falciparum [8] = assay: In vivo antimalarial activity against Plasmodium berghei K173 infected in mouse assessed as reduction in parasitemia at 100 mg/kg, ip measured after 6 days by giemsa staining based microscopic analysis relative to control; type: functional; parameters: scale not given: the % may be the effect or the level left; conditions: time 6 day
Plasmodium falciparum [9] = assay: In vivo antimalarial activity against Plasmodium berghei K173 infected in mouse assessed as chemo-supression percentage at 50 mg/kg, ip by giemsa staining based microscopic analysis relative to control; type: functional
Plasmodium falciparum [10] = assay: In vivo antimalarial activity against Plasmodium berghei K173 infected in mouse assessed as chemo-supression percentage at 100 mg/kg, ip by giemsa staining based microscopic analysis relative to control; type: functional
ASPC1 = assay: Cytotoxicity against human ASPC1 cells; type: functional, cell-based
[11] = Cytotoxicity against human PBMC cells; type: functional, cell-based
Jurkat = assay: Cytotoxicity against human Jurkat T cells; type: functional, cell-based
Plasmodium falciparum [12] = assay: Antimalarial activity against chloroquine-sensitive Plasmodium falciparum 3D7; type: functional, organism-based
Staphylococcus aureus [13] = assay: Antibacterial activity against Staphylococcus aureus; type: functional
Escherichia coli [14] = assay: Antibacterial activity against Escherichia coli; type: functional
Rhizopus arrhizus = assay: Antifungal activity against Rhizopus oryzae; type: functional
Mus musculus [15] = assay: Anticonvulsant activity in BALB/c mouse assessed as increase in survival rate at 60 mg/kg, ip by PTZ method relative to control; type: functional
Candida albicans [16] = assay: Antifungal activity against Candida albicans; type: functional
Escherichia coli [17] = assay: microbe, parasite or virus in culture
Pseudomonas aeruginosa [18] = assay: microbe, parasite or virus in culture
ECa-109 cell line = assay: Anticancer activity against human Eca-109 cells by MTS assay; type: functional, cell-based
[19] = Anticancer activity against human HCC446 cells by MTS assay; type: functional, cell-based
AGS = assay: Anticancer activity against human AGS cells by MTS assay; type: functional, cell-based
Aspergillus clavatus = assay: Antifungal activity against Aspergillus clavatus; type: functional
Aspergillus niger = assay: Antifungal activity against Aspergillus niger; type: functional
Streptococcus pyogenes = assay: Antibacterial activity against Streptococcus pyogenes assessed as inhibition of microbial growth; type: functional
Staphylococcus aureus [20] = assay: Antibacterial activity against Staphylococcus aureus assessed as inhibition of microbial growth; type: functional
[21] = Growth inhibition of human Panel NCI-58 (58 carcinoma cell lines) cells by SRB method; type: functional
UO-31 [22] = assay: Cytotoxicity against human UO-31 cells by SRB method; type: functional; conditions: read-out: LC50 (the source's name)
UO-31 [23] = assay: Growth inhibition of human UO-31 cells by SRB method; type: functional
[24] = Cytotoxicity against human Panel NCI-58 (58 carcinoma cell lines) cells by SRB method; type: functional; conditions: read-out: LC50 (the source's name)
[25] = system: Mycolicibacterium smegmatis; assay: Antimycobacterial activity against Mycobacterium smegmatis; type: functional
Staphylococcus aureus [26] = assay: microbe, parasite or virus in culture
Candida albicans [27] = assay: microbe, parasite or virus in culture
[28] = system: Mycobacterium tuberculosis; assay: Antimycobacterial activity against Mycobacterium tuberculosis; type: functional
Escherichia coli [29] = assay: Antibacterial activity against Escherichia coli by agar dilution method; type: functional
Pseudomonas aeruginosa [30] = assay: Antibacterial activity against Pseudomonas aeruginosa by agar dilution method; type: functional
Staphylococcus aureus [31] = assay: Antibacterial activity against Staphylococcus aureus by agar dilution method; type: functional
Bacillus subtilis = assay: Antibacterial activity against Bacillus subtilis by agar dilution method; type: functional
Escherichia coli [32] = assay: Potency index, ratio of ampicillin MIC to compound MIC for Escherichia coli by agar dilution method; type: functional
Staphylococcus aureus [33] = assay: Potency index, ratio of ampicillin MIC to compound MIC for Staphylococcus aureus by agar dilution method; type: functional
Candida albicans [34] = assay: Antifungal activity against Candida albicans by agar dilution method; type: functional
[35] = Antioxidant activity assessed as DPPH radical scavenging activity; type: functional
Mus musculus [36] = organism: Mus musculus; assay: Antidepressant activity in Swiss albino mouse assessed as decrease in immobility time by forced swimming test; type: functional
Mus musculus [37] = organism: Mus musculus; assay: Antidepressant activity in Swiss albino mouse assessed as decrease in immobility time by tail suspension test; type: functional
MCF7 [38] = assay: Cytotoxicity against human MCF7 cells; type: functional, cell-based
MCF7 [39] = assay: Antitumor activity in human MCF7 cells xenografted in mouse model assessed as tumor volume measured after 12 days relative to control; type: functional; conditions: time 12 day

Sequence of Carbonic anhydrase 1 (P00915 whole entry): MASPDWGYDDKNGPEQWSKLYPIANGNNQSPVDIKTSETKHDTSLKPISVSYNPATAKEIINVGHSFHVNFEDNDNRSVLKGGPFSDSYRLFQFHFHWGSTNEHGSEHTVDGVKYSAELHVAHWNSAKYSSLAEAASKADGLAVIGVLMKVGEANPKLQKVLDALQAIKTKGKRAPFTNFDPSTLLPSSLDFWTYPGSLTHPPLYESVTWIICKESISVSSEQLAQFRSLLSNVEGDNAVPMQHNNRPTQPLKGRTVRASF
Sequence of Acetylcholinesterase (P22303 whole entry): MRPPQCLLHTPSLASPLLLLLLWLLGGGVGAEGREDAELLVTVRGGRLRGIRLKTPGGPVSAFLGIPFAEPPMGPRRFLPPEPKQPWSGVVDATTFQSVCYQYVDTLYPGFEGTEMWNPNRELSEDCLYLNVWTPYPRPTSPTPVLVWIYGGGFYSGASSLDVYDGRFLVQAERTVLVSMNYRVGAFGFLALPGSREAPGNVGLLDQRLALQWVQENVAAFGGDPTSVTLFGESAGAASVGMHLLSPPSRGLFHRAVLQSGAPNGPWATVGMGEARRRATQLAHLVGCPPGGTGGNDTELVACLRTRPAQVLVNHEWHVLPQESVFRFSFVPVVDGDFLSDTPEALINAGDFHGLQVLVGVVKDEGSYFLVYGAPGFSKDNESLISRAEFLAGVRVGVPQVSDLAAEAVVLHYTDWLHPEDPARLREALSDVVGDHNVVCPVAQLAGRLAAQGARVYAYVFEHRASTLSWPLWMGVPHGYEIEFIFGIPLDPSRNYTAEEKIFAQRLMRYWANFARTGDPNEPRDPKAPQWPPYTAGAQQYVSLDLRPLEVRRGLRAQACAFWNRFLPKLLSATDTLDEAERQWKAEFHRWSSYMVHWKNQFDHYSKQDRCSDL

Compound `CN(C)CCCN1c2ccccc2CCc2ccccc21` [IMIPRAMINE] has an Activity (Mus musculus [1]) of 61.96%, an Activity (Mus musculus [2]) of 62.12% and a Time (Mus musculus [3]) of 29.33 s. The Time (Mus musculus [4]) was 29.33 s and the Activity (Mus musculus [5]) was -9.33.
`COc1ccc(C2CC(c3cc(OC)c(OC)c(OC)c3)=NN2C(C)=O)cc1OCc1cn(Cc2ccc(F)c(Cl)c2)nn1` (stereo not drawn) gave a GI50 (A549) of 7 µM, a GI50 (HeLa) of 7 µM and a GI50 (DU-145) of 7 µM. For the same compound, the GI50 (HepG2) was 7 µM.
With `COc1ccc(C2CC(c3ccccc3)=NN2c2ccc(S(N)(=O)=O)cc2)cc1OC` (stereo not drawn) the Ki (Carbonic anhydrase 1) was 0.0279 µM, the Ki (Carbonic anhydrase 2) was 0.0274 µM and the Ki (Acetylcholinesterase) was 0.0377 µM.
`COc1cc(C)c(C2C=C(c3cc(OC)c(OC)c(OC)c3)N(C(=O)OC(C)C)N2C(=O)OC(C)C)cc1C(C)C` (stereo not drawn) showed an IC50 (Plasmodium falciparum [6]) of under 2 µM, an IC50 (Hemozoin) of 38.8 µM and an Activity (Plasmodium falciparum [7]) of 8.03%. The Activity (Plasmodium falciparum [8]) was 4.62%, the Activity (Plasmodium falciparum [9]) was 25.29% and the Activity (Plasmodium falciparum [10]) was 55.6%.
For `Cc1ccc(-c2nnc(SCC(=O)N3N=C(c4cccs4)CC3c3ccc(Cl)cc3)o2)cc1` (stereo not drawn), the IC50 (ASPC1) was 16.8 µM, the IC50 [11] was 1000 µM and the IC50 (Jurkat) was 90 µM.
Compound `COc1cc(C2CC(c3cc4ccccc4oc3=O)=NN2c2ccccc2)cc(OC)c1OC` (stereo not drawn) has an IC50 (Plasmodium falciparum [12]) of 11.6 µg/mL (≈ 25.5 µM), an MIC (Staphylococcus aureus [13]) of 10 µg/mL (≈ 21.9 µM) and an MIC (Escherichia coli [14]) of 12.5 µg/mL (≈ 27.4 µM). The MIC (Rhizopus arrhizus) was 12.5 µg/mL (≈ 27.4 µM).
`O=C(Nc1ccc(Cl)cc1)N1N=C(c2ccc(Br)s2)CC1c1c(Cl)cccc1Cl` (stereo not drawn) showed a survival at 60 mg/kg (Mus musculus [15]) of 95%.
Compound `O=C(c1ccncc1)N1N=C(c2ccc(F)cc2)CC1c1cc2ccccc2nc1Cl` (stereo not drawn) has an MIC (Candida albicans [16]) of 12.5 µg/mL (≈ 29 µM), an MIC (Escherichia coli [17]) of 12.5 µg/mL (≈ 29 µM) and an MIC (Pseudomonas aeruginosa [18]) of 12.5 µg/mL (≈ 29 µM).
`C[C@]12CCC3(CC1=CCC1C2CC[C@]2(C)C4=NN[C@H](c5ccccc5)[C@H]4CC12)OCCO3` (stereo partly drawn) gave an IC50 (ECa-109 cell line) of 17.5 µM, an IC50 [19] of 25.3 µM and an IC50 (AGS) of 27.4 µM.
In the case of `COc1ccc(C2CC(c3ccc(Cl)cc3)=NN2c2ccc(S(N)(=O)=O)cc2)cc1OC` (stereo not drawn), the Ki (Carbonic anhydrase 1) is reported as 0.0279 µM, the Ki (Carbonic anhydrase 2) is reported as 0.0274 µM and the Ki (Acetylcholinesterase) is reported as 0.0377 µM.
In the case of `O=C(c1ccncc1)N1N=C(c2ccc([N+](=O)[O-])cc2)CC1c1cc2ccccc2nc1Cl` (stereo not drawn), the MIC (Aspergillus clavatus) is reported as 12.5 µg/mL (≈ 27.3 µM), the MIC (Candida albicans [16]) is reported as 12.5 µg/mL (≈ 27.3 µM) and the MIC (Aspergillus niger) is reported as 12.5 µg/mL (≈ 27.3 µM). For the same compound, the MIC (Streptococcus pyogenes) was 12.5 µg/mL and the MIC (Staphylococcus aureus [20]) was 12.5 µg/mL.
Work on `O=C(/C=C/c1ccc(C(F)(F)F)cc1)c1ccc(Nc2nc(NCCO)nc(NCCO)n2)cc1` yielded a GI50 [21] of 0.569 µM, a CC50 (UO-31 [22]) of 19.5 µM and a GI50 (UO-31 [23]) of 1.5 µM. The CC50 [24] was 5.15 µM.
With `COc1ccc(-c2nn(-c3ccc(Cl)cc3)cc2C2CC(c3ccc(-c4ccccc4)cc3)=NN2)cc1` (stereo not drawn) the MIC [25] was 15.6 µg/mL (≈ 30.9 µM), the MIC (Staphylococcus aureus [26]) was 15.6 µg/mL (≈ 30.9 µM) and the MIC (Candida albicans [27]) was 15.6 µg/mL (≈ 30.9 µM).
Compound `Clc1ccc(-n2cc(C3CC(c4ccc(-c5ccccc5)cc4)=NN3)c(-c3cccs3)n2)cc1` (stereo not drawn) has an MIC [28] of 1.56 µg/mL (≈ 3.24 µM), an MIC [25] of 7.8 µg/mL (≈ 16.2 µM) and an MIC (Staphylococcus aureus [26]) of 1.56 µg/mL (≈ 3.24 µM). For the same compound, the MIC (Candida albicans [27]) was 1.56 µg/mL (≈ 3.24 µM).
`COc1ccc2c(c1)cc(C1CC(c3cc(Br)ccc3O)=NN1)c1nnnn12` (stereo not drawn) showed an MIC (Escherichia coli [29]) of 50 µg/mL (≈ 114 µM), an MIC (Pseudomonas aeruginosa [30]) of 25 µg/mL (≈ 56.9 µM) and an MIC (Staphylococcus aureus [31]) of 50 µg/mL (≈ 114 µM). It also gave an MIC (Bacillus subtilis) of 25 µg/mL (≈ 56.9 µM), a Ratio (Escherichia coli [32]) of 2 and a Ratio (Staphylococcus aureus [33]) of 10. The MIC (Candida albicans [34]) was 25 µg/mL (≈ 56.9 µM) and the IC50 [35] was 21 µg/mL (≈ 47.8 µM).
Work on `O=C(c1ccncc1)N1N=C(c2ccc(Cl)cc2Cl)CC1c1cc2ccccc2nc1Cl` (stereo not drawn) yielded an MIC (Aspergillus clavatus) of 50 µg/mL (≈ 104 µM), an MIC (Candida albicans [16]) of 12.5 µg/mL (≈ 25.9 µM) and an MIC (Aspergillus niger) of 12.5 µg/mL (≈ 25.9 µM). The MIC (Streptococcus pyogenes) was 12.5 µg/mL and the MIC (Staphylococcus aureus [20]) was 12.5 µg/mL.
`COc1cc(C2CC(c3ccc(-c4cc(F)cc(F)c4)nc3C)=NN2)cc(OC)c1OC` (stereo not drawn) gave an Activity (Mus musculus [1]) of 64.56%, an Activity (Mus musculus [2]) of 66.58% and a Time (Mus musculus [36]) of 66.67 s. It also gave a Time (Mus musculus [37]) of 70.33 s.
Compound `O=C(Nc1ccc(Cl)cc1)N1N=C(c2ccc(Cl)s2)CC1c1c(Cl)cccc1Cl` (stereo not drawn) has a survival at 60 mg/kg (Mus musculus [15]) of 100%.
`CC(=O)Oc1ccc2c(c1)CC[C@@H]1[C@@H]2CC[C@]2(C)C3=NN(c4ccccc4)C(c4cccs4)C3C[C@@H]12` (stereo partly drawn) showed an IC50 (MCF7 [38]) of 0.043 µM and an Activity (MCF7 [39]) of 87%.
For `O=C(c1ccncc1)N1N=C(c2ccc(Cl)cc2)CC1c1cc2ccccc2nc1Cl` (stereo not drawn), the MIC (Escherichia coli [17]) was 12.5 µg/mL (≈ 27.9 µM) and the MIC (Pseudomonas aeruginosa [18]) was 12.5 µg/mL (≈ 27.9 µM).
